Where a name gives a salt, the structure may show the parent alone. Read-outs that look alike come from different tables or passages of the source.
Key:
Type in all cases: physicochemical
[1] = Aqueous solubility in solvents with different pH; details: 20° C., read-out: Solubility (mg/ml solution)
Experimental: Aqueous solubilities of Form I were measured in solvents with different pH. An excess of the solute was equilibrated with the solvent at 20° C. for 24 hours. After removing the undissolved compound, the concentration in solution was determined using UV spectrometry.

[2] = Adsorption/desorption of water (dynamic vapor sorption); details: 25° C., hydrochloride
Experimental: The ADS/DES data were obtained using a SMS dynamic vapor sorption model DVS-1 and the weight change was recorded with tespect to the atmospheric humidity at 25° C. The weight of the samples was about 17 mg of Form I and 24 mg of Form II. The samples were dried for 60 min under dry nitrogen. The equilibrium was lower or equal to 0.01%/min. for minimal 15 min and maximal 60 min. The data interval was 0.05% or 2.0 min.
Relative Humidity (%) measurement points were:
The adsorption and desorption of water at 25° C. at different conditions of relative humidity was investigated on 17 mg Form I.
The weight change as a function of relative humidity was registered.
The adsorption and desorption of water at 25° C. at different conditions of relative humidity was investigated on about 24 mg Form II

[3] = Crystallographic stability after storage in open conditions (TGA, DSC, XRPD, IR); design: key to XRD / IR: ~Ref: identical with reference; Cryst.: crystalline; details: for IR / XRD: Table E
Experimental: The stability of the crystal structure of Form I was studied after storage of the compound in open conditions for a period of six weeks at room temperature (RT) under <5%, 56% and 75% relative humidity (RH), 50° C. and 40° C./75% RH.
The samples are analyzed with thermogravimetry (TGA), differential scanning calorimetry (DSC), X-ray powder diffraction (XRPD) and infrared spectroscopy (IR).
The stability of the crystal structure of Form II was studied after storage of the compound in open conditions for a period of six weeks at room temperature (RT) under <5%, 56% and 75% relative humidity (RH), 50° C. and 40° C./75% RH.
The samples were analyzed with thermogravimetry (TGA), differential scanning calorimetry (DSC), X-ray powder diffraction (XRPD) and infrared spectroscopy (IR).

[4] = Chemical stability after storage in open conditions (HPLC, visual inspection); details: for Appearance / HPLC Sum of impurities: hydrochloride
Experimental: Form I was stored in different open conditions for periods of 1, 4 and 8 weeks.
These conditions are 40° C./75% RH, 50° C., RT/<5% RH, RT/56% RH, RT/75% RH and 0.3 da ICH light.
The compounds were analyzed after storage by HPLC and by visual inspection.
Form II was stored in different open conditions for periods of 1, 4 and 8 weeks. These conditions were 40° C./75% RH, 50° C., RT/<5% RH, RT/56% RH, RT/75% RH and 0.3 da ICH light.

[5] = 0 days (reference), hydrochloride
[6] = six weeks open, 40° C./75% RH, hydrochloride
[7] = six weeks open, 50° C., hydrochloride
[8] = six weeks open, RT/56% RH, hydrochloride
[9] = six weeks open, RT/75% RH, hydrochloride
[10] = six weeks open, RT/<5% RH, hydrochloride

solubility thermodynamic at 24 h ([1]; aqueous buffer, 0.001N HCl (pH 2.9)): 1.5 mg/mL
solubility thermodynamic at 24 h ([1]; aqueous buffer, 0.01N HCl (pH 2.0)): 1.4 mg/mL
solubility thermodynamic at 24 h ([1]; aqueous buffer, Buffer pH 2 (citric acid/NaOH/HCl) (pH 2.0)): 0.95 mg/mL
solubility thermodynamic at 24 h ([1]; aqueous buffer, Buffer pH 4 (citric acid/HCl/NaOH) (pH 3.9)): 1.2 mg/mL
solubility thermodynamic at 24 h ([1]; aqueous buffer, Buffer pH 6 (citric acid/NaOH) (pH 6.0)): 1.5 mg/mL
solubility thermodynamic at 24 h ([1]; aqueous buffer, Buffer pH 8 (boric acid/HCl/NaOH) (pH 7.8)): 1.3 mg/mL
solubility thermodynamic at 24 h ([1]; aqueous buffer, Buffer pH 10 (boric acid/KCl/NaOH) (pH 9.8)): 1.3 mg/mL
solubility thermodynamic at 24 h ([1]; water (pH 4.5)): 1.4 mg/mL
hygroscopic behavior ([2]; adsorption/desorption test): no hygroscopic behavior
water adsorbed at high relative humidity ([2]; high relative humidity): up to 0.6%
crystallinity during the adsorption/desorption test [2]: remained crystalline
DSC Exotherm Max (° C.) ([3]; 0 days (reference)): 216.8 °C
TGA <200° C. ([3]; 0 days (reference)): 0.9%
App (appearance) [3, 5]: Beige-gray
TGA <100° C. [3, 5]: 0.4%
IR ([3]; six weeks open, 40° C./75% RH): ~Ref
XRD ([3]; six weeks open, 40° C./75% RH): ~Ref
IR ([3]; six weeks open, 50° C.): ~Ref
XRD ([3]; six weeks open, 50° C.): ~Ref
IR ([3]; six weeks open, RT/56% RH): ~Ref
XRD ([3]; six weeks open, RT/56% RH): ~Ref
IR ([3]; six weeks open, RT/75% RH): ~Ref
XRD ([3]; six weeks open, RT/75% RH): ~Ref
IR ([3]; six weeks open, RT/<5% RH): ~Ref
XRD ([3]; six weeks open, RT/<5% RH): ~Ref
crystallographic stability (conclusion) ([3]; six weeks open storage under the different conditions, hydrochloride): crystallographically stable
DSC Exotherm Max (° C.) ([3]; six weeks open, 40° C./75% RH): 216.9 °C
TGA <200° C. ([3]; six weeks open, 40° C./75% RH): 0.3%
App (appearance) [3, 6]: Beige-gray
TGA <100° C. [3, 6]: 1%
DSC Exotherm Max (° C.) ([3]; six weeks open, 50° C.): 216.9 °C
TGA <200° C. ([3]; six weeks open, 50° C.): 0.3%
App (appearance) [3, 7]: Beige-gray
TGA <100° C. [3, 7]: 0.5%
DSC Exotherm Max (° C.) ([3]; six weeks open, RT/56% RH): 216.9 °C
TGA <200° C. ([3]; six weeks open, RT/56% RH): 0.4%
App (appearance) [3, 8]: Beige-gray
TGA <100° C. [3, 8]: 0.5%
DSC Exotherm Max (° C.) ([3]; six weeks open, RT/75% RH): 217.0 °C
TGA <200° C. ([3]; six weeks open, RT/75% RH): 0.4%
App (appearance) [3, 9]: Beige-gray
TGA <100° C. [3, 9]: 0.9%
DSC Exotherm Max (° C.) ([3]; six weeks open, RT/<5% RH): 216.7 °C
TGA <200° C. ([3]; six weeks open, RT/<5% RH): 0.5%
App (appearance) [3, 10]: Beige-gray
TGA <100° C. [3, 10]: 0.8%
Appearance ([4]; 0.3 da ICH light (1 week)): beige-gray
HPLC Sum of impurities ([4]; 0.3 da ICH light (1 week)): 4.58%
Appearance ([4]; 40° C./75% RH, 1 week): beige-gray
HPLC Sum of impurities ([4]; 40° C./75% RH, 1 week): 3.31%
Appearance ([4]; 40° C./75% RH, 4 weeks): beige-gray
HPLC Sum of impurities ([4]; 40° C./75% RH, 4 weeks): 3.13%
Appearance ([4]; 40° C./75% RH, 8 weeks): beige-gray
HPLC Sum of impurities ([4]; 40° C./75% RH, 8 weeks): 3.59%
Appearance ([4]; 50° C., 1 week): beige-gray
HPLC Sum of impurities ([4]; 50° C., 1 week): 3.19%
Appearance ([4]; 50° C., 4 weeks): beige-gray
HPLC Sum of impurities ([4]; 50° C., 4 weeks): 3.2%
Appearance ([4]; 50° C., 8 weeks): beige-gray
HPLC Sum of impurities ([4]; 50° C., 8 weeks): 3.16%
Appearance ([4]; RT/56% RH, 4 weeks): beige-gray
HPLC Sum of impurities ([4]; RT/56% RH, 4 weeks): 3.27%
Appearance ([4]; RT/56% RH, 8 weeks): beige-gray
HPLC Sum of impurities ([4]; RT/56% RH, 8 weeks): 3.15%
Appearance ([4]; RT/75% RH, 4 weeks): beige-gray
HPLC Sum of impurities ([4]; RT/75% RH, 4 weeks): 3.43%
Appearance ([4]; RT/75% RH, 8 weeks): beige-gray
HPLC Sum of impurities ([4]; RT/75% RH, 8 weeks): 3.39%
Appearance ([4]; RT/<5% RH, 4 weeks): beige-gray
HPLC Sum of impurities ([4]; RT/<5% RH, 4 weeks): 3.42%
Appearance ([4]; RT/<5% RH, 8 weeks): beige-gray
HPLC Sum of impurities ([4]; RT/<5% RH, 8 weeks): 3.16%
Appearance ([4]; Reference (1 week)): beige-gray
HPLC Sum of impurities ([4]; Reference (1 week)): 3.14%
sensitivity towards light (sum of impurities) ([4]; storage in 0.3 da ICH light conditions): showed a sensitivity towards light
Compound: Cn1cc(CNCC2CCN(c3ncc(C(=O)NO)cn3)CC2)c2ccccc21 [Form I, N-hydroxy-2-[4-[[[(1-methyl-1H-indol-3-yl)methyl]amino]methyl]-1-piperidinyl]-5-pyrimidinecarboxamide hydrochloride]

— patent US8759519B2, “Mono-hydrochloric salts of an inhibitor of histone deacetylase” (Janssen Pharmaceutica NV, priority 2007, dated 2014)
